In patent publication US11103448B2, “Manufacture of pharmaceutical compositions” (VECTURA LIMITED, priority 2003, dated 2021):

Experiment: Particle size distribution by Malvern particle sizer (dry powder)
Format: physicochemical
Description: The particle size distributions of these powdered materials indicate both the level of size reduction obtained by the co-milling, and the level of dispersion efficiency at varied pressures. The d(50) and d(97) plots provide a further indication of this dispersibility of the powders as a function of pressure.
Particle size distributions of the raw materials and selected formulations were determined by Malvern particle sizer, via the Scirroco dry powder disperser.
Twelve formulations were produced from the original powder, using the Hosokawa AS50 jet mill. Either the pure drug was passed through the mill or a blend of drug with 5% w/w of a force control agent added. The mill was used with a range of parameters. Primarily, these were injector air pressure, grinding air pressure and powder feed rate.

In the case of CN1C(=O)CC(=O)N(c2ccccc2)c2cc(Cl)ccc21 [clobozam], the “d(50)” value (clobozam after co-jet milling) is reported as “about 1 μm” and the “d(50)” value (clobozam before co-jet milling) is reported as “about 2.6 μm”.
